Reference: ChEMBL document CHEMBL1255251, “Effects of Escherichia coli lipopolysaccharide on telithromycin pharmacokinetics in rats: inhibition of metabolism via CYP3A” (Antimicrob Agents Chemother, 2008)

How the values were obtained:
[1] = Half life in Sprague-Dawley rat at 50 mg/kg, po pretreated with Escherichia coli lipopolysaccharide (Rvb=123 +/- 63.4 min); assay type: ADME, organism-based; design: dose 50 mg/kg, route oral; details: in vivo
[2] = Oral bioavailability in Sprague-Dawley rat at 50 mg/kg, po pretreated with Escherichia coli lipopolysaccharide (Rvb=38.8%); assay type: ADME, organism-based; details: in vivo
Rattus norvegicus [3] = assay: AUC in Sprague-Dawley rat at 50 mg/kg, po pretreated with Escherichia coli lipopolysaccharide (Rvb=609 +/- 323 ug/min/ml); assay type: ADME, organism-based, Plasma; design: dose 50 mg/kg, route oral; details: in vivo
[4] = Drug excretion in Sprague-Dawley rat urine assessed as unchanged drug at 50 mg/kg, po after 24 hrs pretreated with Escherichia coli lipopolysaccharide (Rvb=4.78 +/- 3.28 %); assay type: ADME, organism-based; design: dose 50 mg/kg, route oral; details: read-out: Drug uptake
Rattus norvegicus [5] = assay: Nonrenal clearance in Sprague-Dawley rat at 50 mg/kg, iv pretreated with Escherichia coli lipopolysaccharide (Rvb=27.2 +/- 5.02 ml/min/kg); assay type: ADME, organism-based; design: dose 50 mg/kg, route intravenous; details: in vivo
[6] = Renal clearance in Sprague-Dawley rat at 50 mg/kg, iv pretreated with Escherichia coli lipopolysaccharide (Rvb=5.29 +/- 0.643 ml/min/kg); assay type: ADME, organism-based, Kidney; design: dose 50 mg/kg, route intravenous; details: in vivo, read-out: CL_renal
[7] = Drug absorption in Sprague-Dawley rat gastrointestinal tract at 50 mg/kg, po after 24 hrs pretreated with Escherichia coli lipopolysaccharide (Rvb=5.73 +/- 4.57 %); assay type: ADME, organism-based; design: dose 50 mg/kg, route oral
[8] = Cmax in Sprague-Dawley rat at 50 mg/kg, po pretreated with Escherichia coli lipopolysaccharide (Rvb=2.35 +/- 1.19 ug/ml); assay type: ADME, organism-based; design: dose 50 mg/kg, route oral; details: in vivo
[9] = Tmax in Sprague-Dawley rat at 50 mg/kg, po pretreated with Escherichia coli lipopolysaccharide (Rvb=180 min); assay type: ADME, organism-based; design: dose 50 mg/kg, route oral; details: in vivo
Rattus norvegicus [10] = assay: AUC in Sprague-Dawley rat at 50 mg/kg, iv pretreated with Escherichia coli lipopolysaccharide (Rvb=1570 +/- 240 ug/min/ml); assay type: ADME, organism-based, Plasma; design: dose 50 mg/kg, route intravenous; details: in vivo
[11] = Drug absorption in Sprague-Dawley rat gastrointestinal tract at 50 mg/kg, iv after 24 hrs pretreated with Escherichia coli lipopolysaccharide (Rvb=8.53 +/- 4.64 %); assay type: ADME, organism-based; design: dose 50 mg/kg, route intravenous
[12] = Drug excretion in Sprague-Dawley rat urine assessed as unchanged drug at 50 mg/kg, iv after 24 hrs pretreated with Escherichia coli lipopolysaccharide (Rvb=16.5 +/- 2.32 %); assay type: ADME, organism-based; design: dose 50 mg/kg, route intravenous; details: read-out: Drug uptake
[13] = Renal clearance in Sprague-Dawley rat at 50 mg/kg, po pretreated with Escherichia coli lipopolysaccharide (Rvb=4.21 +/- 1.81 ml/min/kg); assay type: ADME, organism-based, Kidney; design: dose 50 mg/kg, route oral; details: in vivo, read-out: CL_renal
[14] = Half life in Sprague-Dawley rat at 50 mg/kg, iv pretreated with Escherichia coli lipopolysaccharide (Rvb=159 +/- 56.3 min); assay type: ADME, organism-based; design: dose 50 mg/kg, route intravenous; details: in vivo
[15] = Clearance in Sprague-Dawley rat at 50 mg/kg, iv pretreated with Escherichia coli lipopolysaccharide (Rvb=32.4+/- 5.25 ml/min/kg); assay type: ADME, organism-based; design: dose 50 mg/kg, route intravenous; details: in vivo
[16] = Apparent volume of distribution in Sprague-Dawley rat at 50 mg/kg, iv pretreated with Escherichia coli lipopolysaccharide (Rvb=4,950 +/- 1160 ml/kg); assay type: ADME, organism-based; design: dose 50 mg/kg, route intravenous; details: in vivo, read-out: Vdss(app)

Which half-life [1] does the source give for CC[C@H]1OC(=O)[C@H](C)C(=O)[C@H](C)[C@@H](O[C@@H]2O[C@H](C)C[C@H](N(C)C)[C@H]2O)[C@](C)(OC)C[C@@H](C)C(=O)[C@H](C)[C@H]2N(CCCCn3cnc(-c4cccnc4)c3)C(=O)O[C@]12C [TELITHROMYCIN] here?
Its half-life is 2.33 h.

And the bioavailability [2]?
Its bioavailability is 50.7%.

What about the AUC (Rattus norvegicus [3]) of the same compound?
Its AUC is 1460 µg/min/mL.

And the dose excreted at 24 h [4]?
The dose excreted at 24 h was 9.54%.

What about the CL (Rattus norvegicus [5]) of the same compound?
The CL was 0.906 L/h/kg.

What about the CL renal [6] of the same compound?
Its CL renal is 0.256 L/h/kg.

What about the percent of dose recovered from gastrointestinal tract at 24 h [7] of the same compound?
Its percent of dose recovered from gastrointestinal tract at 24 h is 9.63%.

What about the Cmax [8] of the same compound?
Its Cmax is 5.03 µg/mL.

And the Tmax [9]?
Its Tmax is 3 h.

What about the AUC (Rattus norvegicus [10]) of the same compound?
The AUC was 2880 µg/min/mL.

And the percent of dose recovered from gastrointestinal tract at 24 h [11]?
Its percent of dose recovered from gastrointestinal tract at 24 h is 5.31%.

And the dose excreted at 24 h [12]?
Its dose excreted at 24 h is 23.8%.

And the CL renal [13]?
Its CL renal is 0.19 L/h/kg.

And the half-life [14]?
Its half-life is 2.55 h.

What about the clearance [15] of the same compound?
The clearance was 1.16 L/h/kg.

And the Vd [16]?
Its Vd is 3.28 L/kg.
